The results in this text go back to US10066272B2, “Human homeobox gene ventx and macrophage terminal differentiation and activation, compositions and methods thereof” (priority 2011, dated 2018).

What all share (assay type): cell-based, human
The subject of data set [1] is cytokine mRNA expression in macrophages. As to the kind of experiment: Effects of VentX knockdown on cytokine mRNA expression in macrophages (real-time PCR). More on the design: unit not given here. The note with it: macrophages transfected with siRNA; classical activation by LPS plus IFN-γ. As to the method: Macrophages were generated through incubation of freshly isolated monocytes with 100 ng/mL M-CSF for 4 days. These macrophages were then transfected with siGFP or siVentX, respectively, and further cultured in RPMI 1640 medium for additional 3 days. Thereafter, cells were exposed to 1 μg/mL LPS plus 20 ng/mL γ-IFN for 6 hours. (A) Surface staining of CD40, CD80, CD86 and HLA-DR and intracellular staining of TNF-α and IL1-β were analyzed by flow cytometry. (B) Secreted TNF-α, IL1-β and IL12p70 from culture supernatants were determined with ELISA kits. (C) Reactive oxygen species (ROS) from siGFP or siVentX transfected macrophages were analyzed with fluorescence microscope (left) and flow cytometry (middle). […] (D) Nitrate level from siGFP and siVentX transfected macrophages. Data represent mean+SD of three different experiments. (E) Phagocytosis of siGFP and siVentX transfected macrophage. Red histogram represents transfection with siGFP; green histogram represents transfection with siVentX. Left panel: cells were incubated on ice; right panel: cells were incubated at 37° C. (F) Effects of VentX knockdown on mixed lymphocyte reaction. Irradiated macrophages that had been transfected with siGFP or siVentX were utilized to stimulate allogenic naïve CD4 T cells proliferation. The proliferation rates were represented by counts per minute (CPM). […] Statistically significant difference (p<0.05) was observed when 4×10^2 or 2×10^3 cells were added.
(Martinez, et al. 2008 Front Biosci 13:453-461; Mosser, et al. 2008 Nat Rev Immunol 8:958-969.) To investigate whether VentX is required for classical activation of macrophages, a loss-of-function approach by knockdown of VentX was used.
Human primary monocytes were transfected using the Human Monocyte Nucleofector Kit (Lonza) according to the manufacturer's instructions. Briefly, 5×10^6monocytes were resuspended into 100 μl nucleofector solution with 0.5 nmol of either VentX siRNA (forward: 5′-[…]-3′ (SEQ ID NO:4); reverse: 5′-[…]-3′ (SEQ ID NO:5)) or non-effective GFP siRNA (forward: 5′-[…]-3′ (SEQ ID NO:6); 5′-reverse: […]-3′ (SEQ ID NO:7)) before electroporation with nucleofector II Device (Lonza). Cells were then immediately removed from the device and incubated overnight with 1 ml pre-warmed Human Monocyte Nucleofector Medium containing 2 mM glutamine and 10% FBS. Cells were then resuspended into complete RPMI medium and treated with appropriate cytokines to induce differentiation into macrophages. Similarly, macrophages derived from monocytes were transfected with Human Macrophage Nucleofector Kit (Lonza) following the manufacturer's instructions.
Total RNA was isolated by the TRIzol reagent, and an equal amount of RNA was used for first-strand cDNA synthesis with SuperScript III First-Strand Synthesis System (Invitrogen) according to the manufacturer's protocol. To amplify VentX cDNA with conventional PCR, AccuPrime™ Taq DNA polymerase system (Invitrogen) was used following the manufacturer's instructions. PCR products were separated on 2% agarose gels and stained with ethidium bromide. GAPDH was used as an internal control. Quantitative measurement of VentX and cytokines cDNA were performed with SYBR Green on a LightCycler® (480 Real-Time PCR System; Roche). The primers used are listed in the Sequence Listing (SEQ ID NOs: 24-109).
(Quantitative PCR measures a nucleic acid by following its amplification.)

A further data set deals with macrophages. As to the kind of experiment: Secreted pro-inflammatory cytokines from macrophage culture supernatants (ELISA). Conditions: transfected macrophages, TNF-α, IL1-β and IL12p70 by ELISA (FIG. 8B). How it is done: (§1) Macrophages were generated through incubation of freshly isolated monocytes with 100 ng/mL M-CSF for 4 days. These macrophages were then transfected with siGFP or siVentX, respectively, and further cultured in RPMI 1640 medium for additional 3 days. Thereafter, cells were exposed to 1 μg/mL LPS plus 20 ng/mL γ-IFN for 6 hours. (A) Surface staining of CD40, CD80, CD86 and HLA-DR and intracellular staining of TNF-α and IL1-β were analyzed by flow cytometry. (B) Secreted TNF-α, IL1-β and IL12p70 from culture supernatants were determined with ELISA kits. (C) Reactive oxygen species (ROS) from siGFP or siVentX transfected macrophages were analyzed with fluorescence microscope (left) and flow cytometry (middle). […] (D) Nitrate level from siGFP and siVentX transfected macrophages. Data represent mean+SD of three different experiments. (E) Phagocytosis of siGFP and siVentX transfected macrophage. Red histogram represents transfection with siGFP; green histogram represents transfection with siVentX. Left panel: cells were incubated on ice; right panel: cells were incubated at 37° C. (F) Effects of VentX knockdown on mixed lymphocyte reaction. […]
Levels of IL-1β and TNF-α and IL12p70 in the supernatants of E. coli LPS (Sigma) and IFN-γ (PeproTech) treated macrophage or LPS treated U937 cells were quantified using ELISA kits obtained from eBiosciences. […]
(In an ELISA, binding on a coated surface is turned into a signal by an enzyme label.)

The test system of another data set is activated macrophages. As to the kind of experiment: Detection of reactive oxygen species (ROS) and nitric oxide (NO) in activated macrophages. How it is done:
as §1, with “macrophage.” for “macrophage. Red histogram represents transfection with siGFP; green histogram represents transfection with siVentX. Left panel: cells were incubated on ice; right panel: cells were incubated at 37° C. (F) Effects of VentX knockdown on mixed lymphocyte reaction.”
The ROS level in activated macrophages was detected with Image-iT® LIVE Green Reactive Oxygen Species Detection Kit (Invitrogen) basically following the manufacturer's instructions except that the results were analyzed by both fluorescence microscope and flow cytometry. The NO level was determined by Griess Reagent Kit for Nitrite Determination (Invitrogen) following the protocol provided by the manufacturer.

With “siVentX: VentX siRNA, forward 5′-UUCAGAAUCGCCGCAUGAAACACAAACGG-3′ (SEQ ID NO:4), reverse SEQ ID NO:5 (antisense CCGUUUGUGUUUCAUGCGGCGAUUCUGAA; listed as RNA, chemistry not given here)”, in data set [1], the “IL1-β cytokine mRNA expression” value is listed as 21.93 ± 1.8, the “IL6 cytokine mRNA expression” value worked out at 1.78 ± 0.14, the “IL8 cytokine mRNA expression” value stood at 172 ± 5.8 and the “IL12p35 cytokine mRNA expression” value was 0.37 ± 0.14. Moreover, in data set [1], the “IL12p40 cytokine mRNA expression” value was 0.61 ± 0.05, the “M-SCSF cytokine mRNA expression” value came out at 0.14 ± 0.01 and the “TNF-α cytokine mRNA expression” value is 0.18 ± 0.01. The pro-inflammatory cytokine secretion entry with macrophages is “significant reduction”. For the same substance, in the data set on activated macrophages (transfected macrophages (FIG. 8C)), the “reactive oxygen species produced” value is “significantly less”. Besides, in the data set on activated macrophages (transfected macrophages (FIG. 8D)), the nitric oxide produced entry is “significantly less”.
